Calls of active or inactive are those of the source. Cut-off read from the data, not from the text of the source, for most assays here: actives have a measured Kd and inactives only a lower limit.

Assay [1] deals with Serine/threonine-protein kinase MRCK beta (Homo sapiens, UniProt Q9Y5S2).
The target in assay [2] is T1, Ephrin type-A receptor 1 (Homo sapiens, UniProt P21709).
T1 sequence (P21709 whole entry): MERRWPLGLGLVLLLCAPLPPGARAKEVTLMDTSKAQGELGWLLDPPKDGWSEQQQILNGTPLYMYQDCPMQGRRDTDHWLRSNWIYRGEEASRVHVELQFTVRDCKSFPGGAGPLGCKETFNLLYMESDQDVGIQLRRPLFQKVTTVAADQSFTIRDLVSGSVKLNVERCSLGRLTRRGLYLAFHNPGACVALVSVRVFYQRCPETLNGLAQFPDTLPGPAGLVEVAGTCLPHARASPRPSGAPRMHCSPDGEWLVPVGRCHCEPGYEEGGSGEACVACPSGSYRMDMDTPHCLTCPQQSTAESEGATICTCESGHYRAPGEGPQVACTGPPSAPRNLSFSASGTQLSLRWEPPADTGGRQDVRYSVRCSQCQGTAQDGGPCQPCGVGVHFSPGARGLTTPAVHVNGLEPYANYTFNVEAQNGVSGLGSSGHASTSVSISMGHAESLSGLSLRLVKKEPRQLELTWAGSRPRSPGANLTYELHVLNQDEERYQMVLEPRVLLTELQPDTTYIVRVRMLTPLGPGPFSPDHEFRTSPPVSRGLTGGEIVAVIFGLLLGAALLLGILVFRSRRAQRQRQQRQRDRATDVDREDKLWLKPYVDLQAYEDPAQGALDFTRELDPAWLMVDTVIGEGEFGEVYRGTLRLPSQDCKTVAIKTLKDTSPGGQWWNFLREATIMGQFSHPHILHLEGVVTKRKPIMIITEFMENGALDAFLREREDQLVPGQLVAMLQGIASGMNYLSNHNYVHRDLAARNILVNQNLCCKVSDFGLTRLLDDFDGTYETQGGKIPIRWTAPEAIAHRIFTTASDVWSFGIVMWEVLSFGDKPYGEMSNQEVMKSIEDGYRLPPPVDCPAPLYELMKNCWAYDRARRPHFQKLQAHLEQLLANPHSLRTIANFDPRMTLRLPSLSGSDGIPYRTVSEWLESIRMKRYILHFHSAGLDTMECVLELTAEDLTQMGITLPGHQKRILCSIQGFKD

The target in assay [3] is Mitogen-activated protein kinase kinase kinase kinase 5 (Homo sapiens, UniProt Q9Y4K4).
Mitogen-activated protein kinase kinase kinase kinase 5, sequence (Q9Y4K4 whole entry): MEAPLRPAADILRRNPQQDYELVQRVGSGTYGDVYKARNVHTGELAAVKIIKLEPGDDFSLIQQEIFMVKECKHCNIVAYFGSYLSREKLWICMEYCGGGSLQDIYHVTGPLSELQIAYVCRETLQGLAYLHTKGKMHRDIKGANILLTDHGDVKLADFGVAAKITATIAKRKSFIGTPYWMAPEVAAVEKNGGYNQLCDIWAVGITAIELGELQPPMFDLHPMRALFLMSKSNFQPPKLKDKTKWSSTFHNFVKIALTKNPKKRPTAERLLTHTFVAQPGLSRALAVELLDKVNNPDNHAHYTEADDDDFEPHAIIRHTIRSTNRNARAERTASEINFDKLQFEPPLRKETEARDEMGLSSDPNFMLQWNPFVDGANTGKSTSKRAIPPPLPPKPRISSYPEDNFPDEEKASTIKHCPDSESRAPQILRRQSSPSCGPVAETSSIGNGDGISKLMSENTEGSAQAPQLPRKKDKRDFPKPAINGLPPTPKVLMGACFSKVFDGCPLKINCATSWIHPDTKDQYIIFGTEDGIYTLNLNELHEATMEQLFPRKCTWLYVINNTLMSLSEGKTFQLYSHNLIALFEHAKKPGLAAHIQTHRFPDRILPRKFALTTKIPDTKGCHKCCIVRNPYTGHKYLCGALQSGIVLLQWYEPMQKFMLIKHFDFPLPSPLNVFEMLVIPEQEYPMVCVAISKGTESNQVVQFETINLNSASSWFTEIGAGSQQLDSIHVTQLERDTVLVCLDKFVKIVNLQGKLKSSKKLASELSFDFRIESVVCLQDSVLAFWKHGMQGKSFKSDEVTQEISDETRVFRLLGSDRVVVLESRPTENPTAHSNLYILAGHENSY
The target in assay [4] is Mitogen-activated protein kinase 14 (Homo sapiens, UniProt Q16539).
Mitogen-activated protein kinase 14, sequence (Q16539 whole entry): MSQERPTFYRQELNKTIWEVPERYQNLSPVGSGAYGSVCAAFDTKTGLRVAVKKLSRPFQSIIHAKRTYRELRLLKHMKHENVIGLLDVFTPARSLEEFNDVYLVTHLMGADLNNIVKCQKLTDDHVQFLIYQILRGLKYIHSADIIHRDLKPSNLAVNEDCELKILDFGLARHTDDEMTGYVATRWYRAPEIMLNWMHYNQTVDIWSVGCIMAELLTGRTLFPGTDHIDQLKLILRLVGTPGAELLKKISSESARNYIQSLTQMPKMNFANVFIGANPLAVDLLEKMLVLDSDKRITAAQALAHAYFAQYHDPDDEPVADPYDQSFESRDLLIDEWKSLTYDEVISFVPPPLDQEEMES
Assay [5] deals with T2, NUAK family SNF1-like kinase 2 (Homo sapiens, UniProt Q9H093).
T2 sequence (Q9H093 whole entry): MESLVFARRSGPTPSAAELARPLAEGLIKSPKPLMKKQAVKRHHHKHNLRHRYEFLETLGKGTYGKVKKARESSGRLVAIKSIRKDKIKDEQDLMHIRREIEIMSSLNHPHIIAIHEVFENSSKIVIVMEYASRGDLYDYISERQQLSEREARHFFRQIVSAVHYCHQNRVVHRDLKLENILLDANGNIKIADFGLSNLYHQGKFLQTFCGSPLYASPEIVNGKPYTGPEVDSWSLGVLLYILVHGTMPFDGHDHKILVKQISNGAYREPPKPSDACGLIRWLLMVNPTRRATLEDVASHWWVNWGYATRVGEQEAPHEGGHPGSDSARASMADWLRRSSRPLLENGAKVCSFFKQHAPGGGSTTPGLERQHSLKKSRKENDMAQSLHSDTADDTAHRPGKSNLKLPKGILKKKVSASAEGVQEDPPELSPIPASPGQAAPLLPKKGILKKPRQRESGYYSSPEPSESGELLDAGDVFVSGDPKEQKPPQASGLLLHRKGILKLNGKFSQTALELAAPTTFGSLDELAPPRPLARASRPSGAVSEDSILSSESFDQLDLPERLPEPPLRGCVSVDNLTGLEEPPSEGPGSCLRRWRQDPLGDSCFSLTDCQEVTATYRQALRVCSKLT

Assay [6] concerns the target T3, Tyrosine-protein kinase Tec (Homo sapiens, UniProt P42680).
T3 sequence (P42680 whole entry): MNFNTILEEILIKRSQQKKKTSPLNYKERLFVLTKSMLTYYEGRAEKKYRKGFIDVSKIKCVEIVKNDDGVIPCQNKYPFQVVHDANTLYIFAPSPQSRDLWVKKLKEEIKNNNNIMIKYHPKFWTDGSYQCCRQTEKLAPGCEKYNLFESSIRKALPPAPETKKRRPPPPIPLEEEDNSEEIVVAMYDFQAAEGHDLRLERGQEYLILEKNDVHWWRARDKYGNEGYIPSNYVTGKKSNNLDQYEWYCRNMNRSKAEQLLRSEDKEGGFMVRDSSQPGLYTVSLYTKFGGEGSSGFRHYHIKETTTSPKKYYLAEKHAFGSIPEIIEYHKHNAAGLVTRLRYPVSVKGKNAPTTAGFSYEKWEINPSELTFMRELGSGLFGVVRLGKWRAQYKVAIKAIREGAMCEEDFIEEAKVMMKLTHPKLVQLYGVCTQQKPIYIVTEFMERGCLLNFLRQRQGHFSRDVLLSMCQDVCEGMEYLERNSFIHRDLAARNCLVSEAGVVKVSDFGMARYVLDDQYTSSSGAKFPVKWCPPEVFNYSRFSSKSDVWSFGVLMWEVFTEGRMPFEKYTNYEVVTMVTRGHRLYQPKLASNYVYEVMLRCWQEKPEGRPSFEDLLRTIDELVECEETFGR

In assay [7] the target is T4, Tyrosine--tRNA ligase, cytoplasmic (Homo sapiens, UniProt P54577).
T4 sequence (P54577 whole entry): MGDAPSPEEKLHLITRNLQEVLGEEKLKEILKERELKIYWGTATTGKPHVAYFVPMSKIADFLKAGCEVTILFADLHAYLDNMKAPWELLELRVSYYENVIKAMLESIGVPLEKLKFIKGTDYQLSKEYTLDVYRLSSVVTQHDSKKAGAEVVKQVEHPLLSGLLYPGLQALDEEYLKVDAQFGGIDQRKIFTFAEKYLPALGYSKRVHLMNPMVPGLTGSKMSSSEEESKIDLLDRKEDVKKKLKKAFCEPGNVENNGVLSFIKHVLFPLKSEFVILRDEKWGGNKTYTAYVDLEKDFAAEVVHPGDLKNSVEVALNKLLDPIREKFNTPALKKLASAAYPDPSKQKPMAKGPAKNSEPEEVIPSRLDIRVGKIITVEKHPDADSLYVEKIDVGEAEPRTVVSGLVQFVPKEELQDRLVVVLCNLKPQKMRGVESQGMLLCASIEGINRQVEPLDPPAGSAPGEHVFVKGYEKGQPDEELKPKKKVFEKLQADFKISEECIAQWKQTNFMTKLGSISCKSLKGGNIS
Note: in the data inactive means no Kd found up to 30 µM.

Serine/threonine-protein kinase MRCK beta, sequence (Q9Y5S2 whole entry): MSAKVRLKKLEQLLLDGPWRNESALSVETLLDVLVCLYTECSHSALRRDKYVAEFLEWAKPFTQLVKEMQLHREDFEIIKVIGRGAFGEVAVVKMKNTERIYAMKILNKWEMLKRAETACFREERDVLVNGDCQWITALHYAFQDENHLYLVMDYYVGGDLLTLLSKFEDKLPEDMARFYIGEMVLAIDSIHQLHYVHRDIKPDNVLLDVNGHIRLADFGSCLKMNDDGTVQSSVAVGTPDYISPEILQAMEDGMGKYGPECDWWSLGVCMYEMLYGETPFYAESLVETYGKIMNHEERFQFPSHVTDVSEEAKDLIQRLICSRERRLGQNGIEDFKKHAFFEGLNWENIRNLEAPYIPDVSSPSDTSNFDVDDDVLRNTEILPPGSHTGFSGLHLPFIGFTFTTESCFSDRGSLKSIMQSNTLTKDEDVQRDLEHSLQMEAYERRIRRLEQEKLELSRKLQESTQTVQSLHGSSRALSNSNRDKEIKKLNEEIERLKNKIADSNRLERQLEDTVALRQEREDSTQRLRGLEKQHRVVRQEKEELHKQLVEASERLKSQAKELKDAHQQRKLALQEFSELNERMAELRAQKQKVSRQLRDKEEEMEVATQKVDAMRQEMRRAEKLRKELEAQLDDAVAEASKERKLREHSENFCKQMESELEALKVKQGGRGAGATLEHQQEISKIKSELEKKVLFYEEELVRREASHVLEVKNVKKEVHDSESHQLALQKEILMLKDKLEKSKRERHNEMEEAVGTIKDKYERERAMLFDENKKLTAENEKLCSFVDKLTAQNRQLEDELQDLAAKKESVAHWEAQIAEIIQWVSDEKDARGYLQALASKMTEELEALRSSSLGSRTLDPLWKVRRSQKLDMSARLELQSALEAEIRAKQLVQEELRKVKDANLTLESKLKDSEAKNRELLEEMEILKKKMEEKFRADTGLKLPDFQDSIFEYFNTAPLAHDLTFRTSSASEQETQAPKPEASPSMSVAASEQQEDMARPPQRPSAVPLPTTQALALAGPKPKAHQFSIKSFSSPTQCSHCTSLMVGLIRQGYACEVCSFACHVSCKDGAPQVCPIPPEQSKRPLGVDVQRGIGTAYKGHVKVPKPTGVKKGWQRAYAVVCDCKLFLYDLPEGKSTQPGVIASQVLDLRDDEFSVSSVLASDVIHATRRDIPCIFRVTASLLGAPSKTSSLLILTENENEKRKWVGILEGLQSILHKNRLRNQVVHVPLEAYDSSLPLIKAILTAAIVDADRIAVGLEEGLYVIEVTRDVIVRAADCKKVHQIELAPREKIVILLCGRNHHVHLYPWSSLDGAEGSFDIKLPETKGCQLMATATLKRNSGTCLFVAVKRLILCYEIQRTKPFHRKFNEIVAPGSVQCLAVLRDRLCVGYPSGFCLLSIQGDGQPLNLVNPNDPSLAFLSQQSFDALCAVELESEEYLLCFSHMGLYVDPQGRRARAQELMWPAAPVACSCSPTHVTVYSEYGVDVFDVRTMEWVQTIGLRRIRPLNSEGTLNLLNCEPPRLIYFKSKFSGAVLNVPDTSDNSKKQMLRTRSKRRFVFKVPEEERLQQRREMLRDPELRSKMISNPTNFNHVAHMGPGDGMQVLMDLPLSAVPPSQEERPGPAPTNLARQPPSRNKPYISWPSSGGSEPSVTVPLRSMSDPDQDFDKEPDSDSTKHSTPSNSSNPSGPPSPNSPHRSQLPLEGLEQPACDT

For the compound `Cn1cc(-c2cnn3c(N)c(Br)c([C@@H]4CCCNC4)nc23)cn1` [SCH-900776], the Kd in assay [1], in assay [2], in assay [3], in assay [4], in assay [5] and in assay [6] was > 30 µM (inactive) in each case. Also, in assay [7], the Kd was > 30 µM (inactive).

Regarding `CCS(=O)(=O)c1cccc(-c2cc(C(=O)NC3CCN(C)CC3)c(C)c3[nH]c4ncc(C)cc4c23)c1` [TAK-901], the Kd was > 30 µM (inactive) in assay [1]; > 30 µM (inactive) in assay [2]; 5.36 µM (active) in assay [3]; > 30 µM (inactive) in assay [4]; 0.705 µM (active) in assay [5]; 0.282 µM (active) in assay [6]. Further, the Kd in assay [7] is > 30 µM (inactive).

Consider `CO[C@H]1C[C@@H]2CC[C@@H](C)[C@@](O)(O2)C(=O)C(=O)N2CCCC[C@H]2C(=O)O[C@H]([C@H](C)C[C@@H]2CC[C@@H](OC(=O)C(C)(CO)CO)[C@H](OC)C2)CC(=O)[C@H](C)/C=C(\C)[C@@H](O)[C@@H](OC)C(=O)[C@H](C)C[C@H](C)/C=C/C=C/C=C/1C` [TEMSIROLIMUS], for which the Kd in assay [1], in assay [2], in assay [3], in assay [4], in assay [5] and in assay [6] was > 30 µM (inactive) throughout. Besides, the Kd in assay [7] is > 30 µM (inactive).

Turning to `COc1cc2c(Nc3ccc(Cl)c(Cl)c3F)ncnc2cc1OC[C@@H]1C[C@@H]2CN(C)C[C@@H]2C1` [TESEVATINIB], the Kd was > 30 µM (inactive) in assay [1]; 0.008 µM (active) in assay [2]; 0.908 µM (active) in assay [3]; > 30 µM (inactive) in assay [4]; > 30 µM (inactive) in assay [5]; > 30 µM (inactive) in assay [6]. Moreover, in assay [7], the Kd was > 30 µM (inactive).

Turning to `O=C(Cc1ccc(-c2ccc(OCCN3CCOCC3)cc2)cn1)NCc1ccccc1` [TIRBANIBULIN], the Kd in assay [1], in assay [2], in assay [3], in assay [4], in assay [5] and in assay [6] was > 30 µM (inactive) throughout. Moreover, the Kd in assay [7] is > 30 µM (inactive).

For `Cc1cc(Nc2ncnc3ccc(NC4=NC(C)(C)CO4)cc23)ccc1Oc1ccn2ncnc2c1` [TUCATINIB], the Kd in assay [1], in assay [2], in assay [3], in assay [4], in assay [5] and in assay [6] was > 30 µM (inactive) each time. In assay [7], the Kd was > 30 µM (inactive).

Turning to `Cn1ncc(Cl)c1-c1cc(C(=O)N[C@H](CN)Cc2ccc(F)c(F)c2)oc1Cl` [UPROSERTIB], the Kd in assay [1], in assay [2], in assay [3], in assay [4], in assay [5] and in assay [6] was > 30 µM (inactive) throughout. The Kd in assay [7] was > 30 µM (inactive).

In the case of `CC(C)c1cc(CNc2nc(Nc3cc(C4CC4)[nH]n3)cc(N3CCN(C)CC3)n2)on1` [XL-228], the Kd was > 30 µM (inactive) in assay [1]; 0.005 µM (active) in assay [2]; 0.551 µM (active) in assay [3]; > 30 µM (inactive) in assay [4]; > 30 µM (inactive) in assay [5]; 0.045 µM (active) in assay [6]. Moreover, the Kd in assay [7] was > 30 µM (inactive).

`CN1C/C=C/CCOc2cccc(c2)-c2ccnc(n2)Nc2cccc(c2)C1` [ZOTIRACICLIB]: the Kd in assay [1] was 46.9 µM; in assay [2], > 30 µM (inactive); in assay [3], 5.09 µM (active); in assay [4], > 30 µM (inactive); in assay [5] it was > 30 µM (inactive); in assay [6], > 30 µM (inactive). Besides, the Kd in assay [7] was > 30 µM (inactive).

The term Kd denotes the equilibrium constant for the complex coming apart.

(Values after ChEMBL document CHEMBL3991601, “The target landscape of clinical kinase drugs” (Science, 2017).)
